Paper PMC8396344, “Palmitoylation of Prolactin-Releasing Peptide Increased Affinity for and Activation of the GPR10, NPFF-R2 and NPFF-R1 Receptors: In Vitro Study” (International Journal of Molecular Sciences, 2021)
No end group written: not given here.

Columns and labels:
NPFF-R2 = target: T1, NPFF-R2 (Homo sapiens, UniProt Q9Y5X5); assay: Competitive binding, [^125I]-1DMe, membranes of CHO-K1 cells with NPFF-R2
T1 construct: host or cells: CHO-K1 (AequoScreen, co-expressing aequorin)
Method: (§1) Pellets of CHO-K1 cells containing NPFF-R2, NPFF-R1 and KOR receptors were homogenized in ice-cold homogenizing buffer (20 mM HEPES pH 7.1, 5 mM MgCl2, 0.7 mM bacitracin) with a DIAX 100 Homogenizer (Heidolph Instruments, Schwabach, Germany) and centrifuged in an ultracentrifuge (Beckman Coulter, Fullerton, CA, USA) at 26,000× g for 15 min at 4 °C. The pellets were homogenized in ice-cold homogenization buffer, and the previous steps were repeated 2 more times. After the third centrifugation, pellets were resuspended in ice-cold storage buffer (50 mM Tris-Cl pH 7.4, 0.5 mM EDTA, 10 mM MgCl2, 10% sucrose), and aliquots were stored at −80 °C. The concentration of isolated membrane proteins was determined by a PierceTM BCA Protein Assay Kit (Pierce, Rockford, IL, USA). […]
(§2) Experiments were carried out in duplicate at least three times, and Ki was calculated using the Cheng-Prusoff equation.
(§3) Data were analyzed by GraphPad Software (San Diego, CA, USA) and are presented as the means ± SEM. The saturation and competitive binding experiments were analyzed according to [46] using the Cheng-Prusoff equation [33]. […] From saturation binding experiments, the dissociation constant (Kd) and number of binding sites/cell (Bmax) were calculated. Inhibition constants (Ki) were calculated from IC50 values, Kd and the concentration of radioligands.

NPFF-R1 = target: T2, NPFF-R1 (Homo sapiens, UniProt Q9GZQ6); assay: Competitive and saturation binding, [^125I]-1DMe, membranes of CHO-K1 cells with NPFF-R1
T2 construct: host or cells: CHO-K1 (isolated membranes)
Method: as §2
(§4) Data were analyzed by GraphPad Software (San Diego, CA, USA) and are presented as the means ± SEM. The saturation and competitive binding experiments were analyzed according to [46] using the Cheng-Prusoff equation [33]. The competitive binding curves were plotted compared to the best fit for single-binding site models, and half maximal inhibitory concentration (IC50) values were obtained from nonlinear regression analysis. From saturation binding experiments, the dissociation constant (Kd) and number of binding sites/cell (Bmax) were calculated. Inhibition constants (Ki) were calculated from IC50 values, Kd and the concentration of radioligands.

MOR = target: T3, MOR (Homo sapiens, UniProt P35372); assay: Beta-lactamase reporter gene assay (FRET), MOR; format: cell-based
T3 construct: host or cells: U2OS

KOR [1] = target: T4, KOR (Homo sapiens, UniProt P41145); assay: Competitive and saturation binding, [^125I]-dynorphin, membranes of CHO-K1 cells with KOR; conditions: competition with [^125I]-dynorphin A, CHO-K1 membranes 5 µg protein/tube, 60 min RT; mean ± SEM, 2–5 independent experiments in duplicates; Cheng-Prusoff
T4 construct: host or cells: CHO-K1
Method: as §1, §2, §3

KOR [2] = target: T4, KOR; assay: cell-based
ORL-1 = target: T5, ORL-1 (Homo sapiens, UniProt P41146); assay: Beta-lactamase reporter gene assay (FRET), ORL-1; format: cell-based; conditions: β-lactamase assay, agonist mode, U2OS cells; mean ± SEM, 2–3 independent experiments in duplicates
T5 construct: host or cells: U2OS

Y5 [3] = target: T6, Y5 (Homo sapiens, UniProt Q15761); assay: Beta-lactamase reporter gene assay (FRET), Y5; format: cell-based
T6 construct: host or cells: U2OS
T6 sequence (Q15761 1-445): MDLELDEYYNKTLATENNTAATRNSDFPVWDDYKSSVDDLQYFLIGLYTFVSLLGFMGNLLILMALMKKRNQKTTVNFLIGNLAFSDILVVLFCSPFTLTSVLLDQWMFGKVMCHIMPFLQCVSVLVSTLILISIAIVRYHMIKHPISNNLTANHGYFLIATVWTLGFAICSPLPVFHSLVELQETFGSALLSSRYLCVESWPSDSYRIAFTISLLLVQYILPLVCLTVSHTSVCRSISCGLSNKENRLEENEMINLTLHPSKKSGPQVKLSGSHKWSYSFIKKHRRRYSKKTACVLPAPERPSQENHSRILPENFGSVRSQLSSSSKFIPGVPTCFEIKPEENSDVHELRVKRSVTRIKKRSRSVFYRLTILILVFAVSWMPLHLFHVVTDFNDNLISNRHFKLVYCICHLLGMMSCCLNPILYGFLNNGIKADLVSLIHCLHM

GHSR = target: T7, GHSR (Homo sapiens, UniProt Q92847); assay: Competitive and saturation binding, [^125I]-ghrelin, U2OS cells with GHSR
T7 construct: host or cells: U2OS
Method: (§5) Competition binding experiments were performed according to [45]. […] Binding experiments using U2OS cells were optimized and performed in assay buffer (50 mM Tris-Cl pH 7.4, 118 mM NaCl, 5 mM MgCl2, 4.7 mM KCl, 0.1% BSA) for cells stably expressing GHSR and (25 mM HEPES, 120 mM NaCl, 5 mM MgCl2, 4.7 mM KCl, 1 mM CaCl2, 0.5% BSA, 2 g/L glucose) for cells containing receptors Y1, Y2 and Y5. […] Cells were incubated for 60 min at room temperature (RT).
as §2, §4

Y2 = target: T8, Y2 (Homo sapiens, UniProt P49146); assay: Competitive and saturation binding, [^125I]-PYY, U2OS cells with Y2
T8 construct: host or cells: U2OS
T8 sequence (P49146 1-381): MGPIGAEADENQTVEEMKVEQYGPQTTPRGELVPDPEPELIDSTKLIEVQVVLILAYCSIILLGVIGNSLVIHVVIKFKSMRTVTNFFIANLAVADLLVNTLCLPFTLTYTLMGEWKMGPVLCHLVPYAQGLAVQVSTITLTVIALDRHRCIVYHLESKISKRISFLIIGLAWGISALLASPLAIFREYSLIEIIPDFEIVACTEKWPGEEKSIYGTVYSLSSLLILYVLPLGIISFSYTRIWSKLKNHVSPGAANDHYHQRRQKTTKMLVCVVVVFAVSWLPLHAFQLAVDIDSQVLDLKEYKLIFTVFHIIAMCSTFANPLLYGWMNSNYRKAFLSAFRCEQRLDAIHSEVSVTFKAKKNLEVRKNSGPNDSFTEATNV
Method: as §5, §2, §4

DOR = target: T9, DOR (Homo sapiens, UniProt P41143); assay: Beta-lactamase reporter gene assay (FRET), DOR; format: cell-based; conditions: β-lactamase assay, agonist mode, U2OS cells; mean ± SEM, 2–3 independent experiments in duplicates
T9 construct: host or cells: U2OS

Y5 [4] = target: T6, Y5; assay: Competitive and saturation binding, [^125I]-PYY, U2OS cells with Y5
Method: as §5, §2, §4

Compound	Ki (NPFF-R2) [nM]	Ki (NPFF-R1) [nM]	EC50 (MOR) [nM]	Ki (KOR [1]) [nM]	EC50 (KOR [2]) [nM]	EC50 (ORL-1) [nM]	EC50 (Y5 [3]) [nM]	Ki (GHSR) [nM]	Ki (Y2) [nM]	EC50 (DOR) [nM]	Ki (Y5 [4]) [nM]
SRAHQHSMETRTPDINPAWYTGRGIRPVGRF-NH2 [PrRP31, prolactin-releasing peptide 31, reference compound]	26.7 ± 9.01	40.4 ± 4.2	> 10000	> 10000	> 10000	> 10000	> 10000	> 10000	> 10000	> 10000	2860 ± 43
CCCCCCCCCCCCCCCC(=O)N[C@@H](CO)C(=O)N[C@@H](CCCNC(=N)N)C(=O)N[C@H](C(=O)N[C@@H](Cc1c[nH]cn1)C(=O)N[C@@H](CCCNC(=N)N)C(=O)N[C@@H](Cc1c[nH]cn1)C(=O)N[C@@H](CO)C(=O)N[C@@H](CCSC)C(=O)N[C@@H](CCC(=O)O)C(=O)N[C@H](C(=O)N[C@@H](CCCNC(=N)N)C(=O)N[C@H](C(=O)N1CCC[C@H]1C(=O)N[C@@H](CC(=O)O)C(=O)N[C@H](C(=O)N[C@@H](CC(N)=O)C(=O)N1CCC[C@H]1C(=O)N[C@@H](C)C(=O)N[C@@H](Cc1c[nH]c2ccccc12)C(=O)N[C@@H](Cc1ccc(O)cc1)C(=O)N[C@@H](C)C(=O)N[C@@H](CO)C(=O)N[C@@H](CCCNC(=N)N)C(=O)NCC(=O)N[C@H](C(=O)N[C@@H](CCCNC(=N)N)C(=O)N1CCC[C@H]1C(=O)N[C@H](C(=O)NCC(=O)N[C@@H](CCCNC(=N)N)C(=O)N[C@@H](Cc1ccccc1)C(N)=O)C(C)C)[C@@H](C)CC)[C@@H](C)CC)[C@@H](C)O)[C@@H](C)CC)[C@@H](C)O [Palm-PrRP31]	0.77 ± 0.19	0.78 ± 0.11	> 10000	106 ± 15	> 10000	> 10000	56.5 ± 18.4	160 ± 16	> 10000	> 10000	32.6 ± 6.16
